Results published in patent US20260262643A1, “HERBICIDAL BENZOXAZINES” (FMC CORPORATION, priority 2022, published 2026).

Legend:
barnyardgrass [1] = assay: Test C preemergence; assay type: in vivo, Echinochloa crusgalli; settings: 0 to 100 scale (0 no effect, 100 complete control)
In short: (§1)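 Test material, in non-phytotoxic solvent with surfactant, was sprayed on the soil directly after seeding (preemergence) or on young plants of 2–10 cm with one to two leaves (postemergence). Greenhouse, 10 days; 0–100 visual control scale.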

blackgrass [2] = assay: Test C preemergence; assay type: in vivo, Alopecurus myosuroides; settings: 0 to 100 scale (0 no effect, 100 complete control)
In short: as §1

corn [3] = assay: Test C preemergence; assay type: in vivo, Zea mays; settings: 0 to 100 scale (0 no effect, 100 complete control)
In short: as §1

green foxtail [4] = assay: Test C preemergence; assay type: in vivo, Setaria viridis; settings: 0 to 100 scale (0 no effect, 100 complete control)
In short: as §1

kochia [5] = assay: Test C preemergence; assay type: in vivo, Bassia scoparia; settings: 0 to 100 scale (0 no effect, 100 complete control)
In short: as §1

oat, wild [6] = assay: Test C preemergence; assay type: in vivo, Avena fatua; settings: 0 to 100 scale (0 no effect, 100 complete control)
In short: as §1

pigweed, palmer [7] = assay: Test C preemergence; assay type: in vivo, Amaranthus palmeri; settings: 0 to 100 scale (0 no effect, 100 complete control)
In short: as §1

ragweed [8] = assay: Test C preemergence; assay type: in vivo, Ambrosia artemisiifolia; settings: 0 to 100 scale (0 no effect, 100 complete control)
In short: as §1

ryegrass, Italian [9] = assay: Test C preemergence; assay type: in vivo, Lolium multiflorum; settings: 0 to 100 scale (0 no effect, 100 complete control)
In short: as §1

soybean [10] = assay: Test C preemergence; assay type: in vivo, Glycine max; settings: 0 to 100 scale (0 no effect, 100 complete control)
In short: as §1

wheat [11] = assay: Test C preemergence; assay type: in vivo, Triticum aestivum; settings: 0 to 100 scale (0 no effect, 100 complete control)
In short: as §1

barnyardgrass [12] = assay: Test C postemergence; assay type: in vivo, Echinochloa crusgalli; settings: 10 days
In short: as §1

blackgrass [13] = assay: Test C postemergence; assay type: in vivo, Alopecurus myosuroides; settings: 10 days
In short: as §1

corn [14] = assay: Test C postemergence; assay type: in vivo, Zea mays; settings: 10 days
In short: as §1

green foxtail [15] = assay: Test C postemergence; assay type: in vivo, Setaria viridis; settings: 10 days
In short: as §1

kochia [16] = assay: Test C postemergence; assay type: in vivo, Bassia scoparia; settings: 10 days
In short: as §1

oat, wild [17] = assay: Test C postemergence; assay type: in vivo, Avena fatua; settings: 10 days
In short: as §1

pigweed, palmer [18] = assay: Test C postemergence; assay type: in vivo, Amaranthus palmeri; settings: 10 days
In short: as §1

ragweed [19] = assay: Test C postemergence; assay type: in vivo, Ambrosia artemisiifolia; settings: 10 days
In short: as §1

ryegrass, Italian [20] = assay: Test C postemergence; assay type: in vivo, Lolium multiflorum; settings: 10 days
In short: as §1

soybean [21] = assay: Test C postemergence; assay type: in vivo, Glycine max; settings: 10 days
In short: as §1

wheat [22] = assay: Test C postemergence; assay type: in vivo, Triticum aestivum; settings: 10 days
In short: as §1

galium = assay: Test C postemergence; assay type: in vivo, Galium aparine; settings: 10 days
In short: as §1

horseweed = assay: Test C postemergence; assay type: in vivo, Erigeron canadensis; settings: 10 days
In short: as §1

barnyardgrass [23] = assay: Test D flooded paddy test; assay type: in vivo, Echinochloa crus-galli; settings: 250 g ai/ha, applied to paddy water, visual rating after 13 to 14 days, scale 0 to 100 (0 no effect, 100 complete control)
In short: (§2)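 At the 2-leaf stage, floodwater 3 cm deep received the test compound; that depth persisted throughout. Plants scored visually 13 to 14 days on, 0 (no effect) to 100 (complete control), dash indicating no result.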

ducksalad = assay: Test D flooded paddy test; assay type: in vivo, Heteranthera limosa; settings: 250 g ai/ha, applied to paddy water, visual rating after 13 to 14 days, scale 0 to 100 (0 no effect, 100 complete control)
In short: as §2

rice = assay: Test D flooded paddy test; assay type: in vivo, Oryza sativa; settings: 250 g ai/ha, applied to paddy water, visual rating after 13 to 14 days, scale 0 to 100 (0 no effect, 100 complete control)
In short: as §2

sedge, umbrella = assay: Test D flooded paddy test; assay type: in vivo, Cyperus difformis; settings: 250 g ai/ha, applied to paddy water, visual rating after 13 to 14 days, scale 0 to 100 (0 no effect, 100 complete control)
In short: as §2

[24] = Preemergence, 500 g ai/ha, visual rating after 10 days
[25] = Test C, preemergence, 125 g ai/ha
[26] = 125 g ai/ha, postemergence, 0 to 100 scale, 0 no effect, 100 complete control
[27] = Postemergence, 500 g ai/ha, visual 0 to 100 scale (0 no effect, 100 complete control)

SMILES: COC[C@H]1CN(C(=O)c2cc(-n3cnc(C(C)(C)C)n3)ccc2C)c2cccc(Cl)c2O1 [Compound 264]
- Plant response rating, Barnyardgrass (barnyardgrass [1]; [24]): 100
- Barnyardgrass plant response rating (barnyardgrass [1]; [25]): 70
- Plant response rating, Blackgrass (blackgrass [2]; [24]): 80
- Blackgrass plant response rating (blackgrass [2]; [25]): 40
- Plant response rating, Corn (corn [3]; [24]): 50
- Corn plant response rating (corn [3]; [25]): 30
- Plant response rating, Foxtail, Green (green foxtail [4]; [24]): 100
- Foxtail, Green plant response rating (green foxtail [4]; [25]): 100
- Plant response rating, Kochia (kochia [5]; [24]): 100
- Kochia plant response rating (kochia [5]; [25]): 90
- Plant response rating, Oat, Wild (oat, wild [6]; [24]): 90
- Oat, Wild plant response rating (oat, wild [6]; [25]): 90
- Plant response rating, Pigweed, Palmer (pigweed, palmer [7]; [24]): 100
- Pigweed, Palmer plant response rating (pigweed, palmer [7]; [25]): 100
- Plant response rating, Ragweed (ragweed [8]; [24]): 80
- Ragweed plant response rating (ragweed [8]; [25]): 60
- Plant response rating, Ryegrass, Italian (ryegrass, Italian [9]; [24]): 90
- Ryegrass, Italian plant response rating (ryegrass, Italian [9]; [25]): 90
- Plant response rating, Soybean (soybean [10]; [24]): 80
- Soybean plant response rating (soybean [10]; [25]): 90
- Plant response rating, Wheat (wheat [11]; [24]): 60
- Wheat plant response rating (wheat [11]; [25]): 0
- Plant response rating, Barnyardgrass (barnyardgrass [12]; [26]): 50
- Plant response rating, Barnyardgrass (barnyardgrass [12]; [27]): 90
- Plant response rating, Blackgrass (blackgrass [13]; [26]): 40
- Plant response rating, Blackgrass (blackgrass [13]; [27]): 60
- Plant response rating, Corn (corn [14]; [26]): 30
- Plant response rating, Corn (corn [14]; [27]): 80
- Plant response rating, Foxtail, Green (green foxtail [15]; [26]): 20
- Plant response rating, Foxtail, Green (green foxtail [15]; [27]): 90
- Plant response rating, Kochia (kochia [16]; [26]): 80
- Plant response rating, Kochia (kochia [16]; [27]): 100
- Plant response rating, Oat, Wild (oat, wild [17]; [26]): 10
- Plant response rating, Oat, Wild (oat, wild [17]; [27]): 50
- Plant response rating, Pigweed, Palmer (pigweed, palmer [18]; [26]): 90
- Plant response rating, Pigweed, Palmer (pigweed, palmer [18]; [27]): 90
- Plant response rating, Ragweed (ragweed [19]; [26]): 80
- Plant response rating, Ragweed (ragweed [19]; [27]): 90
- Plant response rating, Ryegrass, Italian (ryegrass, Italian [20]; [26]): 50
- Plant response rating, Ryegrass, Italian (ryegrass, Italian [20]; [27]): 90
- Plant response rating, Soybean (soybean [21]; [26]): 100
- Plant response rating, Soybean (soybean [21]; [27]): 100
- Plant response rating, Wheat (wheat [22]; [26]): 20
- Plant response rating, Wheat (wheat [22]; [27]): 30
- Plant response rating, Galium (galium; [26]): 100
- Plant response rating, Galium (galium; [27]): 100
- Plant response rating, Horseweed (horseweed; [26]): 20
- Plant response rating, Horseweed (horseweed; [27]): 60
- Plant response rating, Barnyardgrass (Flood) (barnyardgrass [23]): 35
- Plant response rating, Ducksalad (Flood) (ducksalad): 75
- Plant response rating, Rice (Flood) (rice): 10
- Plant response rating, Sedge, Umbrella (Flood) (sedge, umbrella): 80
